Data: US7585997B2, “Compounds and compositions for treating dysproliferative diseases, and methods of use thereof” (Chesterford Enterprises Limited, priority 2003, dated 2009)
Where two headings read alike, the source gives them in different places.

Experiments:
Format in all cases: cell-based
[1] = test system: HT-29 human colon adenocarcinoma; assay: Cell growth inhibition, HT-29 cells
[2] = test system: BxPC3, carcinoma of pancreas; assay: Cell growth inhibition, BxPC3 cells; conditions: Homo sapiens, read-out: IC50, BxPC3, pancreas
[3] = test system: JB6c141 rat skin cells; assay: Colony Formation Assay (soft agar assay for colony formation); conditions: 100 micromolar, 14 days, with or without epidermal growth factor
Excerpt: The Colony Formation Assay, also known as “soft agar assay for colony formation” as described by David Bowtell (accessed on the Internet as recently as on Dec. 29, 2003 at http://grimwade.biochem.unimelb.edu.au/bowtell/cellbiol/sect71.htm) was also used to asses the neoplastic cell growth inhibitory effect of these compounds and using the JB6c141 rat skin cells. Briefly, and following the plating of cells in the presence or absence of epidermal growth factor and in each case, in the presence or absence of the test compound, they were incubated at […] in a humidified incubator for 14 days, when plates were stained 0.005% Crystal Violet for >1 hour, colonies were counted using a dissecting microscope.

[4] = HT-29, 24 hr, read-out: IC50, HT-29, colon
[5] = HT-29, 24 h, read-out: IC50, HT-29, colon

IC50 [1, 4]	IC50 ([2]; BXPC-3, 24 hr)	Structure (SMILES)	IC50 [1, 5]	other results
> 500 µM	> 500 µM	CC(=O)Oc1ccccc1C(=O)Oc1ccc(CO)cc1 [2-(acetyloxy)benzoic acid 4-(hydroxymethyl)phenyl ester]	–	–
> 1000 µM	> 1000 µM	CC(=O)Oc1ccccc1C(=O)O [Aspirin, reference compound]	–	–
> 500 µM	–	O=C(/C=C/c1ccc(O)c(O)c1)Oc1ccc(CO)cc1 [Caffeic acid 4-(hydroxymethyl)phenyl ester]	–	–
> 1000 µM	> 1000 µM	O=C(O)/C=C/c1ccc(O)c(O)c1 [Caffeic acid, reference compound]	–	–
150 ± 12 µM	–	O=C(C=Cc1ccccc1)Oc1ccc(CO)cc1 [Cinnamic acid 4-(hydroxymethyl)phenyl ester]	–	–
–	–	CC(C(=O)Oc1ccc(COc2ccc([N+](=O)[O-])cc2[N+](=O)[O-])cc1)c1ccc(-c2ccccc2)c(F)c1 (stereo not drawn) [Compound 1]	–	IC50 ([1]; HT-29, 48 h): ~73 µM; colony formation [3]: abolished colony formation
–	–	CC(=O)Oc1ccccc1C(=O)Nc1ccc(CCl)cc1 [Compound 26, 2-(acetyloxy)benzoic acid 4-(chloromethyl)phenyl amide]	12 ± 3 µM	–
–	–	CC(=O)Oc1ccccc1C(=O)Nc1ccc(CBr)cc1 [Compound 29, 2-(acetyloxy)benzoic acid 4-(bromomethyl)phenyl amide]	7 ± 2 µM	IC50 ([2]; BXPC-3, 24 h): 18 ± 3 µM
–	–	O=C(/C=C/c1ccc(O)c(O)c1)Oc1ccc(CO[N+](=O)[O-])cc1 [Compound 41, caffeic acid 4-(nitrooxymethyl)phenyl ester]	~0.5 µM	–
–	–	O=C(/C=C/c1ccc(O)c(O)c1)Oc1ccc(CCl)cc1 [Compound 47, caffeic acid 4-(chloromethyl)phenyl ester]	0.25 µM	–
